Several values for one entry are separate records, joined by “and”; a condition that tells them apart may be missing. Equal values may be shown once. Read-outs that look alike come from different tables or passages of the source.
Assays:
[1] = system: CYP3A; set-up: method as in earlier work; details: cited from earlier work
[2] = system: CYP3A; assay: PBPK simulation of clinical DDI studies (model verification); set-up: species or system human
Method: For verification simulations, the dose and schedule of drugs were matched to the design of the corresponding clinical DDI study performed in healthy volunteers.
The input parameters of these CYP3A substrates are available in the compound library of Simcyp version 21: SV-Ethinylestradiol and Sim-Midazolam. […] For the ivacaftor–ethinylestradiol situation, ivacaftor 150 mg was administered orally twice daily for 28 days, while ethinylestradiol oral 0.035 mg was administered once daily for 21 days.
The PBPK models for posaconazole and voriconazole as CYP3A inhibitors were built according to the publications by Hong and Li et al., respectively. For the posaconazole–tacrolimus DDI study, posaconazole was administered orally at a dose of 400 mg twice daily for 7 days, and a single oral dose of tacrolimus 0.05 mg/kg was administered on day 7. For the voriconazole–tacrolimus DDI, voriconazole was administered orally at a dose of 400 mg twice daily for the first day, followed by 200 mg twice daily for the next 6 days, and a single oral dose of tacrolimus 0.1 mg/kg was administered on day 7.
To quantify the DDIs, the geometric mean ratios of AUC or Cmax in the presence or absence of CYP3A modulators were determined. The assessment of the DDI prediction success was based on whether predictions fell within a twofold range of the observed data.

[3] = system: CYP3A; details: cited from earlier work; for AUC ratio: co-administration with posaconazole 400 mg twice daily
[4] = cited from earlier work
[5] = system: CYP3A4; details: set to capture observed DDIs with ketoconazole or rifampin; cited from earlier work
[6] = cited from earlier work; remark: listed apart in the source
[7] = cited from earlier work; remark: listed apart in the source
[8] = cited from earlier work; remark: listed apart in the source
[9] = PBPK simulation of plasma or blood pharmacokinetics (Simcyp); details: single dose oral or intravenous, Cmax and AUC
Description: The PBPK models were implemented within the Simcyp Simulator (version 21; Certara, Sheffield, UK). To mimic the CF population, the distribution of ages and proportion of females were corrected to reflect the demographics of the CF population in the default healthy population library file (Sim-Healthy volunteers) provided in Simcyp® [18]. […] Further, the proportion of females was adjusted from 0.32 in the healthy population to 0.48 in CF. For the trial design, we used a population size of 100 (10 trials with 10 subjects in each trial).
Ivacaftor was orally administered under fed conditions to mimic the clinical setting, where a fat-containing food is required for optimal absorption. The simulated data were qualified using the plasma PK data observed in an adult CF population [11].
The whole-blood PK profiles of tacrolimus following single-dose administration (0.05 mg/kg oral or 0.01 mg/kg iv infusion for 4 h) were simulated to verify the performance of the tacrolimus model. Tacrolimus was administered under fasted conditions to mimic the clinical study. The simulated data were qualified using the blood PK data observed in a healthy adult population [24].
The prediction accuracies for the area under the curve (AUC) and maximum plasma concentration (Cmax) values were calculated as a ratio of mean observed over mean predicted values. […]

[10] = molecular target: CYP3A4 (Homo sapiens, UniProt P08684); set-up: method as in Dai et al. [23]; details: ref Dai et al. [23], cited from earlier work
[11] = system: CYP3A5; set-up: method as in Dai et al. [23]; details: ref Dai et al. [23], cited from earlier work
[12] = Clinical case series: tacrolimus trough levels before and after starting ETI in CF lung transplant recipients; type: in vivo, human
Method: This was an IRB-approved, retrospective, single-center cohort study that reviewed all CF lung transplant recipients prescribed ETI post lung transplantation. Patients were included if they were 18 years of age or older with CF, with at least one F508del mutation/minimal function genotype or a mutation in the CFTR gene that is responsive to ETI based on in vitro data. To evaluate the impact of ETI on tacrolimus exposure, tacrolimus trough levels were recorded before and up to one month after starting ETI. Patients had to be clinically stable, with no significant changes in health status, or initiating new medications known to modulate CYP3A4 and/or P-gp one month before or after starting ETI. Patients lost to follow-up or with missing tacrolimus trough levels were excluded.
Collected data included age, sex, weight, baseline lung function, body mass index, CFTR genotype, additional comorbidities, transplant and ETI start dates, ETI and tacrolimus dosing regimens, concurrent CYP3A4 modulators, and tacrolimus blood levels.
Baseline lung function was defined as the highest forced expiratory volume in one second (FEV1) during the year prior to initiating ETI therapy, obtained from routine pulmonary function tests. Percent predicted FEV1 (ppFEV1) was then extrapolated using the Global Lung Function Initiative 2012 prediction equation [35]. Tacrolimus troughs were measured through routine clinical laboratory blood draws and analyzed by validated immunoturbidometric protocols. To assess the effects of ETI, tacrolimus doses and concentrations within one month before and after ETI start were recorded. The steady state for tacrolimus and ETI were estimated to be attained within four to five half-lives after starting a regimen. Tacrolimus troughs were recorded at least 2–3 days after a dose change and 5–6.5 days post ETI initiation, based on elexacaftor’s longest half-life of the three CFTR modulators. Furthermore, to explore potential variability in the adherence to therapy and the timing of blood draws, tacrolimus trough levels within one month post ETI were averaged. For two patients with a changed tacrolimus dose immediately prior to ETI initiation and without a corresponding trough level, we captured the next most recent dose and trough within a three-month period.
All statistical analyses were performed using GraphPad version 8.0.2, with a two-sided significance value of 0.05.

[13] = system: Caco-2 cell; set-up: method as in Gertz et al. [22]; details: ref Gertz et al. [22]; cited from earlier work
[14] = set-up: method as in Emoto et al. [25]; details: ref Emoto et al. [25], cited from earlier work
[15] = cited from earlier work; remark: listed apart in the source
[16] = victim drug +/− ivacaftor 150 mg oral twice daily, healthy volunteers
[17] = ivacaftor 150 mg q12h oral, plasma, adult CF population
[18] = tacrolimus 0.05 mg/kg single dose oral, blood, healthy adults
[19] = tacrolimus 0.1 mg/kg single dose iv infusion (4 h), blood, healthy adults
[20] = individual patients 1–13, dose normalized

Sequence of CYP3A4 (Homo sapiens, UniProt P08684) (P08684 whole entry): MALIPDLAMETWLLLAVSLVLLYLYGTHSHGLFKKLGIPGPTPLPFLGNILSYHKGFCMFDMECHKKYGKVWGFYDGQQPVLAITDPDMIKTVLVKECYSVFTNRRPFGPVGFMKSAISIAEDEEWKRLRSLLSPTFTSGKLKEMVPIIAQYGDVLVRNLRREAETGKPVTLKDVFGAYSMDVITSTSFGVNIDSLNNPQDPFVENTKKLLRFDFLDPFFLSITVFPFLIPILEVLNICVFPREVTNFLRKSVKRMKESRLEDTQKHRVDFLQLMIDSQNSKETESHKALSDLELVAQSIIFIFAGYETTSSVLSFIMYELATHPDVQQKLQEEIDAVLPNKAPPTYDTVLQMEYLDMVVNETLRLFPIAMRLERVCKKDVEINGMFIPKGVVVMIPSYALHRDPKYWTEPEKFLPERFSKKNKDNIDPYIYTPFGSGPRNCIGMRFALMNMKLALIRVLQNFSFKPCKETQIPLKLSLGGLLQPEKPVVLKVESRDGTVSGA

Cc1nn(C)cc1S(=O)(=O)NC(=O)c1ccc(-n2ccc(OCC(C)(C)C(F)(F)F)n2)nc1N1C[C@@H](C)CC1(C)C [elexacaftor]
effect on the activity of CYP3A [1]: no significant effect

C#C[C@]1(O)CC[C@H]2[C@@H]3CCc4cc(O)ccc4[C@H]3CC[C@@]21C [ethinylestradiol]
AUC Ratio, Ratio (Simulated/Observed) ([2]; victim drug +/− ivacaftor): 1.07
Cmax Ratio, Ratio (Simulated/Observed) ([2]; victim drug +/− ivacaftor): 0.91
AUC Ratio, Observed GMR (90% CI) [3, 16]: 1.07 (1.00, 1.14)
Cmax Ratio, Observed GMR (90% CI) [3, 16]: 1.22 (1.10, 1.36)

CC(C)(C)c1cc(C(C)(C)C)c(NC(=O)c2c[nH]c3ccccc3c2=O)cc1O [ivacaftor]
Observed AUC (0–12 h) (mean) [4, 17]: 12,100 ng∙h/mL
Observed Cmax (mean) [4, 17]: 1270 ng/mL
fraction metabolized by CYP3A4 (fmCYP3A4) [5]: 98%
Tmax ([6]; human, in vivo): 2 to 6 h
half-life ([6]; human, in vivo): 15 h
logP ([7]; ivacaftor model input): 5.68
fraction of unbound drug in plasma (fu) ([8]; ivacaftor model input): 0.001

Cc1ncc2n1-c1ccc(Cl)cc1C(c1ccccc1F)=NC2 [midazolam]
oral bioavailability [6]: 31–72%
AUC Ratio, Ratio (Simulated/Observed) ([2]; victim drug +/− ivacaftor): 1.09
Cmax Ratio, Ratio (Simulated/Observed) ([2]; victim drug +/− ivacaftor): 1.09
AUC ratio [3]: 4.97
AUC Ratio, Observed GMR (90% CI) [3, 16]: 1.54 (1.39, 1.69)
Cmax Ratio, Observed GMR (90% CI) [3, 16]: 1.38 (1.26, 1.52)

C=CC[C@@H]1/C=C(\C)C[C@H](C)C[C@H](OC)[C@H]2O[C@@](O)(C(=O)C(=O)N3CCCC[C@H]3C(=O)O[C@H](/C(C)=C/[C@@H]3CC[C@@H](O)[C@H](OC)C3)[C@H](C)[C@@H](O)CC1=O)[C@H](C)C[C@@H]2OC [tacrolimus]
Observed AUC (0–108 h) (mean) [4, 18]: 307 ng·h/mL
Observed Cmax (mean) [4, 18]: 37.8 ng/mL
Observed AUC (0–264 h) (mean) [4, 19]: 378 ng·h/mL
Observed Cmax (mean) [4, 19]: 21.4 ng/mL
ratio of the predicted to observed PK parameters [9]: 0.8–1.3
CYP3A4 Vmax ([10]; 12-hydroxylation): 0.6 pmol/min/pmol CYP
Km ([10]; 12-hydroxylation): 0.29 µM
CYP3A4 Vmax ([10]; 13-O-desmethylation): 8 pmol/min/pmol CYP
Km ([10]; 13-O-desmethylation): 0.21 µM
oral bioavailability [6]: < 20%
bioavailability ([6]; significantly affected by the presence of food): 5–93%
CYP3A5 Vmax ([11]; 12-hydroxylation): 1.4 pmol/min/pmol CYP
Km ([11]; 12-hydroxylation): 0.35 µM
CYP3A5 Vmax ([11]; 13-O-desmethylation): 17 pmol/min/pmol CYP
Km ([11]; 13-O-desmethylation): 0.21 µM
TAC DN Trough Level, Post-ETI, Median ([12]; N = 13 cohort): 96.12 ng/mL per mg/kg/day
TAC DN Trough Level, Pre-ETI, Median ([12]; N = 13 cohort): 73.41 ng/mL per mg/kg/day
TAC Trough Concentration, Post-ETI, Median ([12]; N = 13 cohort): 9.05 ng/mL
TAC Trough Concentration, Pre-ETI, Median ([12]; N = 13 cohort): 7.50 ng/mL
Percent Difference DN Trough, Median (increase after starting ETI) ([12]; N = 13 cohort, p = 0.0479): 32%
TAC Trough Concentration, Post-ETI ([12]; individual patients 1–13, averaged within one month post ETI): 9.50 ng/mL and 3.40 ng/mL and 8.90 ng/mL and 6.10 ng/mL and 5.58 ng/mL and 6.70 ng/mL and 9.05 ng/mL and 15.70 ng/mL and 14.10 ng/mL and 9.75 ng/mL and 9.73 ng/mL and 8.45 ng/mL and 11.30 ng/mL
Percent Difference DN Trough ([12]; individual patients 1–13, post- vs pre-ETI): 62.10% and −57.76% and 30.93% and −6.95% and −47.69% and 35.60% and 53.90% and 125.51% and 74.90% and 65.49% and 32.22% and −21.64% and 13.23%
TAC Trough Concentration, Pre-ETI ([12]; individual patients 1–13, within one month before ETI start): 5.60 ng/mL and 7.30 ng/mL and 7.10 ng/mL and 6.60 ng/mL and 11.40 ng/mL and 6.90 ng/mL and 8.40 ng/mL and 7.70 ng/mL and 7.50 ng/mL and 10.40 ng/mL
TAC DN Trough Level, Post-ETI [12, 20]: 245.10 ng/mL per mg/kg/day and 19.30 ng/mL per mg/kg/day and 96.12 ng/mL per mg/kg/day and 101.40 ng/mL per mg/kg/day and 42.88 ng/mL per mg/kg/day and 62.88 ng/mL per mg/kg/day and 68.78 ng/mL per mg/kg/day and 162.86 ng/mL per mg/kg/day and 82.64 ng/mL per mg/kg/day and 451.10 ng/mL per mg/kg/day and 193.04 ng/mL per mg/kg/day and 54.29 ng/mL per mg/kg/day and 454.83 ng/mL per mg/kg/day
TAC DN Trough Level, Pre-ETI [12, 20]: 151.20 ng/mL per mg/kg/day and 45.68 ng/mL per mg/kg/day and 73.41 ng/mL per mg/kg/day and 108.97 ng/mL per mg/kg/day and 81.98 ng/mL per mg/kg/day and 46.37 ng/mL per mg/kg/day and 44.69 ng/mL per mg/kg/day and 72.22 ng/mL per mg/kg/day and 47.25 ng/mL per mg/kg/day and 272.58 ng/mL per mg/kg/day and 146.00 ng/mL per mg/kg/day and 69.29 ng/mL per mg/kg/day and 401.70 ng/mL per mg/kg/day
increase in tacrolimus DN trough levels ([12]; patients on a full dose of ETI): 32%
increase in tacrolimus DN trough levels ([12]; subgroup of 4 patients on CYP3A4 modulators and reduced ETI dose): 22%
AUC Ratio, Ratio (Simulated/Observed) ([2]; tacrolimus +/− posaconazole): 0.98
Cmax Ratio, Ratio (Simulated/Observed) ([2]; tacrolimus +/− posaconazole): 1.20
AUC Ratio, Ratio (Simulated/Observed) ([2]; tacrolimus +/− voriconazole): 1.07
Cmax Ratio, Ratio (Simulated/Observed) ([2]; tacrolimus +/− voriconazole): 1.00
predicted AUC and Cmax ratio relative to the observed values ([2]; tacrolimus model as victim, DDIs with posaconazole or voriconazole): 0.98 to 1.20
Compound type ([7]; ref Gertz et al. [21]): Neutral
Log Po:w ([7]; ref Gertz et al. [21]): 3.3
Caco-2 permeability [13]: 13.1 10^−6 cm/s
AUC ratio [3]: 4.58
AUC Ratio, Observed GMR (90% CI) ([3]; tacrolimus +/− posaconazole): 4.5 (4.0, 5.2)
Cmax Ratio, Observed GMR (90% CI) ([3]; tacrolimus +/− posaconazole): 2.0 (2.0, 2.4)
AUC Ratio, Observed GMR (90% CI) ([3]; tacrolimus +/− voriconazole): 3.0 (2.7, 3.8)
Cmax Ratio, Observed GMR (90% CI) ([3]; tacrolimus +/− voriconazole): 2.0 (1.9, 2.5)
increase of tacrolimus concentration ([3]; with clarithromycin, despite a 64% reduction in the tacrolimus dose): fourfold
B/P (blood-to-plasma ratio) ([8]; ref Gertz et al. [21]): 35
ka (absorption rate constant) ([14]; first-order absorption model): 3.68 h⁻¹
kin ([14]; minimal PBPK model): 0.68 h⁻¹
kout ([14]; minimal PBPK model): 0.10 h⁻¹
Lag time [14]: 0.43 h
Vsac (single adjusted compartment volume) [14]: 10.8 L/kg
fa (fraction available from dosage form) [14]: 1.0
dose excreted unchanged in urine [15]: less than 1%
unchanged tacrolimus as share of total radioactivity excreted in feces ([15]; in vivo): less than 1%

CC(C)(CO)c1cc2cc(NC(=O)C3(c4ccc5c(c4)OC(F)(F)O5)CC3)c(F)cc2n1C[C@@H](O)CO [tezacaftor]
effect on the activity of CYP3A [1]: no significant effect

Reference: article PMC10222456, “Application of Physiologically Based Pharmacokinetic Modeling to Predict Drug–Drug Interactions between Elexacaftor/Tezacaftor/Ivacaftor and Tacrolimus in Lung Transplant Recipients” (Pharmaceutics, 2023)
